How the values were obtained:
hIL-6R = target: T1, hIL-6R (Homo sapiens, UniProt P08887); test: IgG ELISA, binding to hIL-6R in mouse serum with or without kynurenine; details: mouse serum with or without kynurenine
T1 sequence (P08887 20-355 limits assumed): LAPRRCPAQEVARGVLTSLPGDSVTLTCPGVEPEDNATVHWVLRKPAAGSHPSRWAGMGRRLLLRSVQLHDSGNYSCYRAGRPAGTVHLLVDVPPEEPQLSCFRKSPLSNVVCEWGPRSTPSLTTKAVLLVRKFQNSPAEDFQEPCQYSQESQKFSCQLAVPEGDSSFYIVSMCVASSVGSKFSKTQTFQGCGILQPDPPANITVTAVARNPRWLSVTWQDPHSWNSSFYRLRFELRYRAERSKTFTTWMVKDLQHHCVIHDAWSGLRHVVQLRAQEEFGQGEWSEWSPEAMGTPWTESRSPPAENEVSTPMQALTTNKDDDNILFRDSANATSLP
Experimental: As described in Example 14, antibody 6RNMSC1-2_F02 which has antigen-binding activity in the presence of kynurenine, and the known anti-hIL-6R antibody MRA were subjected to ELISA under the two conditions described in Table 20. The antigen used was biotin-labeled hIL-6R.
First, a StreptaWell 96 microtiter plate (Roche) was coated at room temperature for one hour or more with 100 μl of PBS containing the biotin-labeled antigen. After washing with Wash buffer to remove unbound antigen from the plate, each well was blocked for one hour or more with 250 μl of Blocking Buffer. After Blocking Buffer was removed from each well, each of the purified IgGs was prepared to 2.5 μg/ml under condition 2 shown in Table 20, and aliquoted at 100 μl into the plate. The plate was allowed to stand at room temperature for one hour to allow binding of each IgG to the antigen in each well. After washing with Wash Buffer containing 100 μM kynurenine, an HRP-conjugated anti-human IgG antibody (BIOSOURCE) diluted with Sample Buffer containing kynurenine was added to each well. The plate was incubated for one hour. Following wash with Wash Buffer containing kynurenine, the TMB single solution (ZYMED) was added to each well. The chromogenic reaction in the solution of each well was terminated by adding sulfuric acid. Then, the developed color was assessed by measuring absorbance at 450 nm.

BaF/hIL-6R cells = test: Flow cytometry, binding to membrane-type hIL-6R on BaF/hIL-6R cells; format: cell-based; details: with and without 100 μM kynurenine
Experimental: 6RNMSC1-2_F02 antibody which has an antigen-binding activity in the presence of kynurenine as described in Example 14 was assessed for its binding to soluble hIL-6R. As a first step in assessing the ADCC activity of 6RNMSC1-2_F02 to hIL-6R-expressing cells, 6RNMSC1-2_F02 was evaluated as to whether it has the ability to bind to membrane-type hIL-6R expressed in hIL-6R-expressing cells. Specifically, the binding of 6RNMSC1-2_F02 to cells of the BaF/hIL-6R line (WO2012/073992) was assayed and analyzed using a flow cytometer. An appropriate number of BaF/hIL-6R cells were prepared and blocked with PBS containing 2% FBS on ice for one hour or more. Supernatant was removed from the blocked cells by centrifugation, and 100 μl of 6RNMSC1-2_F02 or the control antibody MRA (the heavy chain and light chain sequences are shown in SEQ ID NOs: 92 and 93, respectively) was added under two conditions: in the presence or absence of a final concentration of kynurenine at 100 μM. In this step, the antibodies were contacted with cell-membrane hIL-6R on ice for 30 minutes. […] Then, in the presence or absence of kynurenine, the complex was contacted with a secondary antibody (Beckman Coulter IM1627) that recognizes the antibody constant region. […] The binding of 6RNMSC1-2_F02 to the prepared cells was assayed and analyzed using the BD FACS cant II Flow Cytometer (BD).

IL-6 [1] = target: T2, IL-6 (Homo sapiens, UniProt P05231); test: Biacore T200, interaction between IL-6 and kynurenine; format: binding; set-up: purchased Kamakura Techno-Science, Inc; details: kynurenine at a maximal concentration of 800 nmol/l, about 5000 RU IL-6 immobilized, 25° C.
T2 sequence (P05231 30-212): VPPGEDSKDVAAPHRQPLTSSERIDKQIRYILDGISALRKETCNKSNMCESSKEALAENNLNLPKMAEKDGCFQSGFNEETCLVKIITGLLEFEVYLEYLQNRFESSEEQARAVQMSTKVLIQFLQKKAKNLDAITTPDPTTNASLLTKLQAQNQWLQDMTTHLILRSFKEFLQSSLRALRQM
Experimental: The interaction between IL-6 (Kamakura Techno-Science, Inc.) and kynurenine was analyzed using Biacore T200 (GE Healthcare). Sensor chip CM5 (GE Healthcare) was immobilized with about 5000 RU of IL-6 by amine coupling, and 800, 400, 200, 100, 50, or 25 nmol/l kynurenine was allowed to interact with IL-6. The running buffer used was 10 mmol/l ACES, 150 mmol/l NaCl, 0.05% (w/v) Tween20, pH 7.4. All measurements for the interaction described above were carried out at 25° C. Kynurenine was diluted using the running buffer.
About 5000 RU of IL-6 was immobilized in the above-described experiment. The molecular weights of IL-6 and kynurenine were about 20000 g/mol and about 200 g/mol, respectively. Thus, at maximum about 50 RU of kynurenine was expected to interact.

IL-6 [2] = target: T2, IL-6; format: binding; set-up: purchased Kamakura Techno-Science, Inc; details: estimated
Experimental: Using Biacore T200 (GE Healthcare), A11 was analyzed for its interaction with human IL-6 (Kamakura Techno-Science, Inc.) in antigen-antibody reaction. Sensor chip CM5 (GE Healthcare) was immobilized with an appropriate amount of protein A/G (Invitrogen) by amine coupling. Antibodies of interest were captured by the chip to allow interaction to IL-6 as an antigen. The two types of running buffers used were 10 mmol/1 ACES, 150 mmol/l NaCl, 0.05% (w/v) Tween20, 100 μmol/l kynurenine, pH 7.4, and 10 mmol/1 ACES, 150 mmol/l NaCl, 0.05% (w/v) Tween20, pH 7.4. The interaction with IL-6 as an antigen was assessed at 37° C. The buffer used to dilute IL-6 was the same running buffer as described above.
A diluted solution of human IL-6 and a running buffer as a blank were injected at a flow rate of 5 μl/min for three minutes to allow interaction of human IL-6 with A11 captured on the sensor chip. […] The dissociation constant KD (M) of A11 was calculated for human IL-6 based on the association rate constant ka (1/Ms) and dissociation rate constant kd (1/s), both of which are kinetic parameters calculated from the sensorgram obtained by the measurement. Each parameter was calculated using the Biacore T200 Evaluation Software (GE Healthcare).
Then, the effect of kynurenine concentration on antigen-antibody reaction between A11 and human IL-6 was assessed using Biacore T200 (GE Healthcare). […]

Row | Compound | absorbance, effect of kynurenine (hIL-6R) | fluorescence (binding to membrane-type hIL-6R) (BaF/hIL-6R cells) | interaction with IL-6 (IL-6 [1]) | KD of kynurenine for formation of the complex consisting of A11, IL-6, and kynurenine (IL-6 [2])
1 | MRA: known anti-human IL-6R antibody; SEQ ID NOs: 92 and 93 [reference compound] | the same regardless of the presence or absence of kynurenine | detectable regardless of the presence or absence of kynurenine |  | 
2 | Nc1ccccc1C(=O)C[C@H](N)C(=O)O [kynurenine] |  |  | not detectable | several tens nM to several nM

Source: US11673947B2, “Target tissue-specific antigen-binding molecule” (Chugai Seiyaku Kabushiki Kaisha, priority 2012, dated 2023)
